Data as given in PMC7402526, “An in vitro quantitative systems pharmacology approach for deconvolving mechanisms of drug-induced, multilineage cytopenias” (PLoS Computational Biology, 2020).

How the values were obtained:
[1] = system: late erythroid cells (Eryth II); test: MLTA, ErythII: concentration-response and QSP model fit; format: cell-based, human; settings: Homo sapiens, 144 h
How it was run: (§1)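 Freeze-thawed primary human bone marrow CD34+ cells were grown in SFEM II with a multi-lineage cytokine cocktail, drug added day 0, six days at 37°C. Lineage counts came from 17-parameter flow with TruCount beads, vehicle-normalized per donor, then fitted by an Emax-based QSP model.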

granulocytes (Gran-lin) = test: MLTA, Gran: concentration-response and QSP model fit; format: cell-based, human; settings: Homo sapiens, 144 h
How it was run: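 Parameters come from fitting an Emax-based QSP model, with L1 regularization and Emax ranging 0–2, to vehicle-normalized, bead-corrected flow cytometry counts. Counts came from human bone marrow CD34+ cells treated from day 0 through a 6-day multi-lineage cytokine culture in SFEM II, using 2–7 donors per drug.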

MK cells (MK-lin) = test: MLTA, MK: concentration-response and QSP model fit; format: cell-based, human; settings: Homo sapiens, 144 h
How it was run: as §1

[2] = system: multi-potent progenitors (MPPs); test: MLTA, MPPs: concentration-response and QSP model fit; format: cell-based, human; settings: Homo sapiens, 144 h
How it was run: as §1

[3] = system: neutrophils (neutrophil-lin); test: MLTA, Neut: concentration-response and QSP model fit; format: cell-based, human; settings: Homo sapiens, Neutrophil, 144 h
How it was run: as §1

[4] = system: human bone marrow-derived CD34+ cells differentiated into multiple hematopoietic lineages; test: MLTA, overall effects across hematopoietic lineages; format: cell-based; settings: QSP model fit; EmaxT > 1.0 = cell-killing
How it was run: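 Thawed primary human bone marrow CD34+ cells grown in SFEM II with a multi-lineage cytokine cocktail, drug added day 0, 6 days at 37°C, 5% CO2. Subsets counted by 17-parameter flow cytometry with TruCount beads, normalized to six vehicle wells per donor (2–7 donors); Emax model fitted per cell type.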

[5] = system: granulocyte-macrophage progenitor (GMPs); test: MLTA, GMPs: concentration-response and QSP model fit; format: cell-based, human; settings: Homo sapiens, 144 h, 6 days, normalized to vehicle control, read-out: GMPs normalized cell count
How it was run: as §1

B cells (B-lin) = test: MLTA, B-lin: concentration-response and QSP model fit; format: cell-based, human; settings: Homo sapiens, B-cell, 144 h
How it was run: as §1

[6] = system: total dead cells (totalDeadCells); test: MLTA, total dead cells concentration-response; format: cell-based; settings: Homo sapiens, 144 h, 6 days, normalized to vehicle control, read-out: total_dead normalized cell count
How it was run: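 Freeze-thawed primary human bone marrow CD34+ cells in SFEM II with cytokine cocktail, drug added day 0, 6 days at 37°C, 5% CO2. Live/dead counts by 17-parameter flow cytometry with DAPI exclusion, bead-normalized, volume-corrected to cells/mL. Normalized per donor to mean of six vehicle wells; 2–7 donors pooled.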

CCc1cnn2c(NCc3ccc[n+]([O-])c3)cc(N3CCCC[C@H]3CCO)nc12 [dinaciclib]
activity at 0.0002 µM ([1]; dose 0.2 nM, 6 days, normalized to vehicle control, read-out: ErythII normalized cell count): 90%
activity at 0.001 µM ([1]; dose 1 nM, 6 days, normalized to vehicle control, read-out: ErythII normalized cell count): 108%
activity at 0.005 µM ([1]; dose 5 nM, 6 days, normalized to vehicle control, read-out: ErythII normalized cell count): 98.7%
activity at 0.025 µM ([1]; dose 25 nM, 6 days, normalized to vehicle control, read-out: ErythII normalized cell count): 23.2%
activity at 0.1 µM ([1]; dose 100 nM, 6 days, normalized to vehicle control, read-out: ErythII normalized cell count): 0.0437%
activity at 0.5 µM ([1]; dose 500 nM, 6 days, normalized to vehicle control, read-out: ErythII normalized cell count): 0.0109%
activity at 2.5 µM ([1]; dose 2500 nM, 6 days, normalized to vehicle control, read-out: ErythII normalized cell count): 0.0201%
Emax ([1]; parameter from QSP model fitting, read-out: Emax_drug_ErythroidII): 7.1%
activity at 0.0002 µM (granulocytes (Gran-lin); dose 0.2 nM, 6 days, normalized to vehicle control, read-out: Gran normalized cell count): 96.8%
activity at 0.001 µM (granulocytes (Gran-lin); dose 1 nM, 6 days, normalized to vehicle control, read-out: Gran normalized cell count): 120%
activity at 0.005 µM (granulocytes (Gran-lin); dose 5 nM, 6 days, normalized to vehicle control, read-out: Gran normalized cell count): 121%
activity at 0.025 µM (granulocytes (Gran-lin); dose 25 nM, 6 days, normalized to vehicle control, read-out: Gran normalized cell count): 32.8%
activity at 0.1 µM (granulocytes (Gran-lin); dose 100 nM, 6 days, normalized to vehicle control, read-out: Gran normalized cell count): 0.0467%
activity at 0.5 µM (granulocytes (Gran-lin); dose 500 nM, 6 days, normalized to vehicle control, read-out: Gran normalized cell count): 0.0554%
activity at 2.5 µM (granulocytes (Gran-lin); dose 2500 nM, 6 days, normalized to vehicle control, read-out: Gran normalized cell count): 0.0385%
Emax (granulocytes (Gran-lin); parameter from QSP model fitting, read-out: Emax_drug_Gran): 201%
activity at 0.0002 µM (MK cells (MK-lin); dose 0.2 nM, 6 days, normalized to vehicle control, read-out: MK normalized cell count): 90.3%
activity at 0.001 µM (MK cells (MK-lin); dose 1 nM, 6 days, normalized to vehicle control, read-out: MK normalized cell count): 111%
activity at 0.005 µM (MK cells (MK-lin); dose 5 nM, 6 days, normalized to vehicle control, read-out: MK normalized cell count): 71.8%
activity at 0.025 µM (MK cells (MK-lin); dose 25 nM, 6 days, normalized to vehicle control, read-out: MK normalized cell count): 11.8%
activity at 0.1 µM (MK cells (MK-lin); dose 100 nM, 6 days, normalized to vehicle control, read-out: MK normalized cell count): 0.294%
activity at 0.5 µM (MK cells (MK-lin); dose 500 nM, 6 days, normalized to vehicle control, read-out: MK normalized cell count): 0.526%
activity at 2.5 µM (MK cells (MK-lin); dose 2500 nM, 6 days, normalized to vehicle control, read-out: MK normalized cell count): 0.425%
Emax (MK cells (MK-lin); parameter from QSP model fitting, read-out: Emax_drug_MK): 33.1%
activity at 0.0002 µM ([2]; dose 0.2 nM, 6 days, normalized to vehicle control, read-out: MPPs normalized cell count): 94.1%
activity at 0.001 µM ([2]; dose 1 nM, 6 days, normalized to vehicle control, read-out: MPPs normalized cell count): 104%
activity at 0.005 µM ([2]; dose 5 nM, 6 days, normalized to vehicle control, read-out: MPPs normalized cell count): 96.7%
activity at 0.025 µM ([2]; dose 25 nM, 6 days, normalized to vehicle control, read-out: MPPs normalized cell count): 53.4%
activity at 0.1 µM ([2]; dose 100 nM, 6 days, normalized to vehicle control, read-out: MPPs normalized cell count): 2.71%
activity at 0.5 µM ([2]; dose 500 nM, 6 days, normalized to vehicle control, read-out: MPPs normalized cell count): 2.67%
activity at 2.5 µM ([2]; dose 2500 nM, 6 days, normalized to vehicle control, read-out: MPPs normalized cell count): 0.896%
Emax ([2]; parameter from QSP model fitting, read-out: Emax_drug_MPP): 69.4%
activity at 0.0002 µM ([3]; dose 0.2 nM, 6 days, normalized to vehicle control, read-out: Neut normalized cell count): 83.8%
activity at 0.001 µM ([3]; dose 1 nM, 6 days, normalized to vehicle control, read-out: Neut normalized cell count): 83.1%
activity at 0.005 µM ([3]; dose 5 nM, 6 days, normalized to vehicle control, read-out: Neut normalized cell count): 24.9%
activity at 0.025 µM ([3]; dose 25 nM, 6 days, normalized to vehicle control, read-out: Neut normalized cell count): 0.684%
activity at 0.1 µM ([3]; dose 100 nM, 6 days, normalized to vehicle control, read-out: Neut normalized cell count): 0.0259%
activity at 0.5 µM ([3]; dose 500 nM, 6 days, normalized to vehicle control, read-out: Neut normalized cell count): 0.0166%
activity at 2.5 µM ([3]; dose 2500 nM, 6 days, normalized to vehicle control, read-out: Neut normalized cell count): 0.0149%
Emax ([3]; parameter from QSP model fitting, read-out: Emax_drug_Neut): 28.1%
EmaxT effects across cell types (overall statement) [4]: > 1.0
activity at 0.0002 µM ([5]; dose 0.2 nM): 87%
activity at 0.001 µM ([5]; dose 1 nM): 111%
activity at 0.005 µM ([5]; dose 5 nM): 87.6%
activity at 0.025 µM ([5]; dose 25 nM): 40.3%
activity at 0.1 µM ([5]; dose 100 nM): 0.755%
activity at 0.5 µM ([5]; dose 500 nM): 1.71%
activity at 2.5 µM ([5]; dose 2500 nM): 0.744%
activity at 0.0002 µM (B cells (B-lin); dose 0.2 nM, 6 days, normalized to vehicle control, read-out: B-lin normalized cell count): 81.8%
activity at 0.001 µM (B cells (B-lin); dose 1 nM, 6 days, normalized to vehicle control, read-out: B-lin normalized cell count): 90.4%
activity at 0.005 µM (B cells (B-lin); dose 5 nM, 6 days, normalized to vehicle control, read-out: B-lin normalized cell count): 90.4%
activity at 0.025 µM (B cells (B-lin); dose 25 nM, 6 days, normalized to vehicle control, read-out: B-lin normalized cell count): 11.7%
activity at 0.1 µM (B cells (B-lin); dose 100 nM, 6 days, normalized to vehicle control, read-out: B-lin normalized cell count): 0.127%
activity at 0.5 µM (B cells (B-lin); dose 500 nM, 6 days, normalized to vehicle control, read-out: B-lin normalized cell count): 0.514%
activity at 2.5 µM (B cells (B-lin); dose 2500 nM, 6 days, normalized to vehicle control, read-out: B-lin normalized cell count): 0.106%
Emax (B cells (B-lin); parameter from QSP model fitting, read-out: Emax_drug_B): 77.4%
activity at 0.0002 µM ([6]; dose 0.2 nM): 108%
activity at 0.001 µM ([6]; dose 1 nM): 106%
activity at 0.005 µM ([6]; dose 5 nM): 78.9%
activity at 0.025 µM ([6]; dose 25 nM): 34.8%
activity at 0.1 µM ([6]; dose 100 nM): 38.7%
activity at 0.5 µM ([6]; dose 500 nM): 34.1%
activity at 2.5 µM ([6]; dose 2500 nM): 39.6%
